Results from patent publication US8815854B2, “Substituted imidazopyridinyl compounds” (ArQule, Inc., priority 2011, dated 2014).

Molecular target: Full-length inactive AKT1 (Homo sapiens (Human), UniProt P31749)
Test: Inactive Akt Alpha Screen Assay (AKT1, crosstide substrate)
Details: full-length inactive AKT1 activated by PDK1 and MAPKAPK2, lipid vesicles, 50 μM ATP; biotinylated crosstide substrate; read-out: Akt1 biochemical assay IC50 AlphaScreen crosstide
Protocol: AKT1 activity was assayed using the GSK3-derived biotinylated peptide substrate, crosstide (biotin-GRPRTSSFAEG), and AlphaScreen™ (Amplified Luminescent Proximity Homogeneous Assay) technology. AKT1 activation was achieved by the addition of the activating kinases PDK1 and MAPKAPK2, lipid vesicles, and ATP. The extent of peptide phosphorylation was determined using a phospho-AKT substrate antibody and acceptor beads conjugated to Protein A and donor beads conjugated to streptavidin that bind to the biotin on the peptide. Excitation of the donor beads converted ambient oxygen to excited singlet oxygen which, when in close proximity to acceptor beads, reacted with acceptor beads resulting in signal amplification.
Test inhibitors and controls ((S)-1-(5-(3-methyl-1H-indazol-5-yl)pyridin-3-yl)oxy)-3-phenylpropan-2-amine, 1-(1-(4-(7-phenyl-1H-imidazo[4,5-g]quinoxalin-6-yl)benzyl)piperidin-4-yl)-1H-benzo[d]imidazol-2(3H)-one, and 8-(4-(1-aminocyclobutyl)phenyl)-9-phenyl-[1,2,4]triazolo[3,4-f][1,6]naphthyridin-3(2H)-one) were prepared in 10% DMSO at 10-fold the desired final concentration, and added to each well of a reaction plate (Corning 96-well half-area solid white nonbinding surface plate) in a volume of 2.5 μL. […] After a 20 minute pre-incubation at room temperature, the kinase reaction was initiated by the addition of 5 μL of an activation mixture diluted in assay buffer containing biotinylated crosstide, PDK1, MAPKAPK2, DOPS/DOPC, PtdIns(3,4,5)P3, and ATP for final concentrations of 60 nM biotinylated crosstide, 0.1 nM PDK1, 0.7 nM MK2, 5.5 μM DOPS, 5.5 μM DOPC, 0.5 μM PtdIns(3,4,5)P3, and 50 μM ATP. The plates were incubated for 30 minutes at room temperature, and then stopped in the dark by the addition of 10 μL stop/detection mixture prepared in assay buffer containing EDTA, AlphaScreen™ Streptavidin Donor and Protein A Acceptor beads, and phospho-AKT substrate antibody for final concentrations of 10 mM EDTA, 500 ng/well of both AlphaScreen™ Streptavidin Donor beads and Protein A Acceptor beads, and phospho-AKT substrate antibody at a final dilution of 1:350. Assay plates were incubated for 90 minutes at room temperature in the dark, and the plates were read on a Perkin Elmer Envision Multilabel plate reader (excitation wavelength: […], emission wavelength: 570 nm).
Envision Instrument Settings: • Instrument: Perkin Elmer Envision • Plate: 96 well • Program Name: • Excitation: Ex Top • Minor: General Dual—Slot 2 • Excitation Filter: CFP430 Ex. Slot 2 • Emission Filter Emission 579—Em slot 2 • 2nd Emission Filter: None • Measurement Height (mm): 3.8 • Excitation light (%): 1 • Detector gain: 1 • 2nd detector gain: 0 • # Flashes: 10 • # Flashed/AD: 1 • Reference Signal: 383722 • AD gain: 4 • Reference Excitation (%): 100

Chain of Full-length inactive AKT1 (P31749 whole entry): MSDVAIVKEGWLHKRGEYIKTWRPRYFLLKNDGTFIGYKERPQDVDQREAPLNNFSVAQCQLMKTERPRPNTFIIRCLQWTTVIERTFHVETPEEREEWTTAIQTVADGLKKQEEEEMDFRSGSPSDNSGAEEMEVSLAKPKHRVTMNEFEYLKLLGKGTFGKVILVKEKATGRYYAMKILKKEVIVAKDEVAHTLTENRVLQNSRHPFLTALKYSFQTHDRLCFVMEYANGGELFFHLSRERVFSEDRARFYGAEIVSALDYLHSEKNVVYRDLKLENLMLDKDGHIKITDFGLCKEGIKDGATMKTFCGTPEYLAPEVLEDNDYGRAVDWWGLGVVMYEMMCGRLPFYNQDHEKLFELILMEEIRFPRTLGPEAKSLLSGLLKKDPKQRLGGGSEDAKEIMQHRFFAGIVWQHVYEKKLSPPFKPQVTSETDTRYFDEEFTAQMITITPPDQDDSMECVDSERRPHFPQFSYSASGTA

Row | IC50 [nM] | Compound
1 | 12.6 | NC1(c2ccc(-n3c(-c4ccccc4)nc4ccc(-c5ccccc5)nc43)cc2)CCC1 [Cmpd 5, 1-[4-(2,5-diphenyl-3H-imidazo[4,5-b]pyridin-3-yl)phenyl] cyclobutanamine]
2 | 11.5 | NC1(c2ccc(-n3c(-c4cccnc4F)nc4ccc(-c5ccccc5)nc43)cc2)CCC1 [Cmpd 7, 1-{4-[2-(2-fluoropyridin-3-yl)-5-phenyl-3H-imidazo[4,5-b]pyridin-3-yl]phenyl}cyclobutanamine]
3 | 3.47 | NC1(c2ccc(-n3c(-c4ccccc4)nc4ccc(-c5cccc(N6CCOCC6)c5)nc43)cc2)CCC1 [Cmpd 9, 1-{4-[5-(3-morpholin-4-ylphenyl)-2-phenyl-3H-imidazo[4,5-b]pyridin-3-yl]phenyl}cyclobutanamine]
4 | 1.99 | NC1(c2ccc(-n3c(-c4ccccc4F)nc4ccc(-c5cccc(N6CCOCC6)c5)nc43)cc2)CCC1 [Cmpd 11, 1-{4-[2-(2-fluorophenyl)-5-(3-morpholin-4-ylphenyl)-3H-imidazo[4,5-b]pyridin-3-yl]phenyl}cyclobutanamine]
5 | 7.17 | NC1(c2ccc(-n3c(-c4cccs4)nc4ccc(-c5cccc(N6CCOCC6)c5)nc43)cc2)CCC1 [Cmpd 12, 1-{4-[5-(3-morpholin-4-ylphenyl)-2-(2-thienyl)-3H-imidazo[4,5-b]pyridin-3-yl]phenyl} cyclobutanamine]
6 | 5.78 | NC1(c2ccc(-n3c(-c4ccsc4)nc4ccc(-c5cccc(N6CCOCC6)c5)nc43)cc2)CCC1 [Cmpd 13, 1-{4-[5-(3-morpholin-4-ylphenyl)-2-(3-thienyl)-3H-imidazo[4,5-b]pyridin-3-yl]phenyl} cyclobutanamine]
7 | 1.69 | NC1(c2ccc(-n3c(-c4ccccn4)nc4ccc(-c5cccc(N6CCOCC6)c5)nc43)cc2)CCC1 [Cmpd 14, 1-{4-[5-(3-morpholin-4-ylphenyl)-2-pyridin-2-yl-3H-imidazo[4,5-b]pyridin-3-yl]phenyl} cyclobutanamine]
8 | 4.3 | NC1(c2ccc(-n3c(-c4cccnc4)nc4ccc(-c5cccc(N6CCOCC6)c5)nc43)cc2)CCC1 [Cmpd 15, 1-{4-[5-(3-morpholin-4-ylphenyl)-2-pyridin-3-yl-3H-imidazo[4,5-b]pyridin-3-yl]phenyl} cyclobutanamine]
9 | 7.75 | NC1(c2ccc(-n3c(-c4ccncc4)nc4ccc(-c5cccc(N6CCOCC6)c5)nc43)cc2)CCC1 [Cmpd 16, 1-{4-[5-(3-morpholin-4-ylphenyl)-2-pyridin-4-yl-3H-imidazo[4,5-b]pyridin-3-yl]phenyl} cyclobutanamine]
10 | 4.74 | NC1(c2ccc(-n3c(-c4nccs4)nc4ccc(-c5cccc(N6CCOCC6)c5)nc43)cc2)CCC1 [Cmpd 17, 1-{4-[5-(3-morpholin-4-ylphenyl)-2-(1,3-thiazol-2-yl)-3H-imidazo[4,5-b]pyridin-3-yl]phenyl} cyclobutanamine]
11 | 7.27 | NC1(c2ccc(-n3c(-c4cc[nH]n4)nc4ccc(-c5cccc(N6CCOCC6)c5)nc43)cc2)CCC1 [Cmpd 18, 1-{4-[5-(3-morpholin-4-ylphenyl)-2-(1H-pyrazol-3-yl)-3H-imidazo[4,5-b]pyridin-3-yl]phenyl} cyclobutanamine]
12 | 5.67 | NC1(c2ccc(-n3c(-c4cc[nH]c4)nc4ccc(-c5cccc(N6CCOCC6)c5)nc43)cc2)CCC1 [Cmpd 19, 1-{4-[5-(3-morpholin-4-ylphenyl)-2-(1H-pyrrol-3-yl)-3H-imidazo[4,5-b]pyridin-3-yl]phenyl} cyclobutanamine]
13 | 5260 | COC(=O)c1ccccc1-c1nc2ccc(-c3cccc(N4CCOCC4)c3)nc2n1-c1ccc(C2(N)CCC2)cc1 [Cmpd 20, methyl 2-{3-[4-(1-aminocyclobutyl)phenyl]-5-(3-morpholin-4-ylphenyl)-3H-imidazo[4,5-b]pyridin-2-yl} benzoate]
14 | 1160 | NC1(c2ccc(-n3c(C4CCCCC4)nc4ccc(-c5cccc(N6CCOCC6)c5)nc43)cc2)CCC1 [Cmpd 24, 1-{4-[2-cyclohexyl-5-(3-morpholin-4-ylphenyl)-3H-imidazo[4,5-b]pyridin-3-yl]phenyl} cyclobutanamine]
15 | 4.42 | NC1(c2ccc(-n3c(-c4ccc(O)cc4)nc4ccc(-c5cccc(N6CCOCC6)c5)nc43)cc2)CCC1 [Cmpd 26, 4-{3-[4-(1-aminocyclobutyl)phenyl]-5-(3-morpholin-4-ylphenyl)-3H-imidazo[4,5-b]pyridin-2-yl}phenol]
16 | 4.78 | NC1(c2ccc(-n3c(-c4cccc(F)c4)nc4ccc(-c5cccc(N6CCOCC6)c5)nc43)cc2)CCC1 [Cmpd 30, 1-{4-[2-(3-fluorophenyl)-5-(3-morpholin-4-ylphenyl)-3H-imidazo[4,5-b]pyridin-3-yl]phenyl}cyclobutanamine]
17 | 35.5 | NC1(c2ccc(-n3c(-c4ccc(F)cc4)nc4ccc(-c5cccc(N6CCOCC6)c5)nc43)cc2)CCC1 [Cmpd 31, 1-{4-[2-(4-fluorophenyl)-5-(3-morpholin-4-ylphenyl)-3H-imidazo[4,5-b]pyridin-3-yl]phenyl}cyclobutanamine]
18 | 5.9 | NC1(c2ccc(-n3c(-c4ccc(Cl)cc4)nc4ccc(-c5cccc(N6CCOCC6)c5)nc43)cc2)CCC1 [Cmpd 34, 1-{4-[2-(4-chlorophenyl)-5-(3-morpholin-4-ylphenyl)-3H-imidazo[4,5-b]pyridin-3-yl]phenyl}cyclobutanamine]
19 | 6.27 | NC(=O)c1cccc(-c2ccc3nc(-c4ccccc4)n(-c4ccc(C5(N)CCC5)cc4)c3n2)c1 [Cmpd 35, 3-{3-[4-(1-aminocyclobutyl)phenyl]-2-phenyl-3H-imidazo[4,5-b]pyridin-5-yl}benzamide]
20 | 5.71 | CN(C)C(=O)c1cccc(-c2ccc3nc(-c4ccccc4)n(-c4ccc(C5(N)CCC5)cc4)c3n2)c1 [Cmpd 36, 3-{3-[4-(1-aminocyclobutyl)phenyl]-2-phenyl-3H-imidazo[4,5-b]pyridin-5-yl}-N,N-dimethylbenzamide]
21 | 4.96 | CNC(=O)c1cccc(-c2ccc3nc(-c4ccccc4)n(-c4ccc(C5(N)CCC5)cc4)c3n2)c1 [Cmpd 37]
22 | 4.27 | NC1(c2ccc(-n3c(-c4cnccn4)nc4ccc(-c5cccc(N6CCOCC6)c5)nc43)cc2)CCC1 [Cmpd 42, 1-{4-[5-(3-morpholin-4-ylphenyl)-2-pyrazin-2-yl-3H-imidazo[4,5-b]pyridin-3-yl]phenyl} cyclobutanamine]
23 | 871 | NC1(c2ccc(-n3c(C4CC4)nc4ccc(-c5cccc(N6CCOCC6)c5)nc43)cc2)CCC1 [Cmpd 44, 1-{4-[2-cyclopropyl-5-(3-morpholin-4-ylphenyl)-3H-imidazo[4,5-b]pyridin-3-yl]phenyl}cyclobutanamine]
24 | 4.13 | NC1(c2ccc(-n3c(-c4ccccc4)nc4ccc(Nc5ccccc5)nc43)cc2)CCC1 [Cmpd 47, 3-[4-(1-aminocyclobutyl)phenyl]-N,2-diphenyl-3H-imidazo[4,5-b]pyridin-5-amine]
